In patent US7629503B2, “Δ-4 desaturases from Euglena gracilis, expressing plants, and oils containing PUFA” (BASF Plant Science GmbH, priority 2003, dated 2009):

System: Euglena gracilis Δ4-desaturase
Experiment: Substrate specificity: feeding fatty acids to yeast expressing the Δ-4-desaturase (pYES-EGD4-2), fatty acid analysis by GC
Assay type: cell-based
Conditions: transformed yeast (saccharomyces strain SC334, pYES-EGD4-2), 100 μM fatty acid substrate (67 μM for 16:1 Δ7), 2% galactose induction, 15° C. for 4 days
Description: Yeasts transformed with the plasmid pYES-EGD4-2 as in Example 4 were analyzed in the following way:
The yeast cells were grown in 1 ml of minimal medium with 0.2% raffinose for two days and then transferred into 5 ml of the same medium. This culture was grown at 30° C. for 6 h until the OD600 was 0.05. Then 100 μM of the fatty acid substrates (67 μM for 16:1 Δ7) were added, and the expression of the Δ-4-desaturase was induced by adding 2% galactose. The cells were then incubated at 15° C. for 4 days, harvested, washed with 100 mM NaHCO3 and employed for the fatty acid analysis by GC.
The substrate specificities were found by feeding the transformed yeast strains with different fatty acids (Tab. 1). Conversion of the fed fatty acids to their Δ4-desaturated products was then determined.

Row | SMILES | Conversion (in %) of the fed fatty acid to its Δ4-desaturated product
1 | CCCCCCCCCCCCCCCCCC(=O)O [18:0] | Not detectable
2 | CCCCCCCCC=CCCCCCC(=O)O [16:1 Δ7] | 7.4 (±0.8) %
3 | CCCCC/C=C\C/C=C\C/C=C\CCCCC(=O)O [18:3 Δ6, 9, 12] | Not detectable
4 | CCCCCC/C=C\CCCCCCCC(=O)O [16:1 Δ9] | Not detectable
5 | CCCCCCCCCCCCCCCC(=O)O [16:0] | Not detectable
6 | CCCCCCCC/C=C\CCCCCCCC(=O)O [18:1 Δ9] | Not detectable
7 | CCCCC/C=C\C/C=C\CCCCCCCC(=O)O [18:2 Δ9, 12] | Not detectable
8 | CCCCC/C=C\C/C=C\C/C=C\C/C=C\CCCCCC(=O)O [22:4 Δ7, 10, 13, 16] | 28.7 (±2.5) %
9 | CCCCC/C=C\C/C=C\C/C=C\CCCCCCC(=O)O [20:3 Δ8, 11, 14] | Not detectable
10 | CC/C=C\C/C=C\C/C=C\C/C=C\C/C=C\CCCCCC(=O)O [22:5 Δ7, 10, 13, 16, 19, docosapentaenoic acid] | 29.7 (±2.8) %
11 | CC/C=C\C/C=C\C/C=C\CCCCCC(=O)O [16:3 Δ7, 10, 13] | 21.4 (±3.3) %
